Assay results: US5773413A, “Method of combating mammalian neoplasias, and lytic peptides therefor” (Demeter Biotechnologies, Ltd., priority 1995, dated 1998)
Where a SMILES comes first, the peptide text is derived from it. [ ]: non-standard residue; d: D form. The star is where a group is joined. NMe2Phe = CN(C)[C@@H](Cc1ccccc1)C(=O)*; Lys(Me2) = CN(C)CCCC[C@H](N)C(=O)O

Experiments:
[1] = ALD evaluation, intramuscular administration in rat; format: in vivo
Method: (§1) In the following description, Riv=iv administration in rat, Rim=intramuscular administration in rat, Miv=iv administration in mouse, and Mim=intramuscular administration in mouse.
(§2) Lethality data and clinical observations were collected during the ALD evalution of the peptides denoted D5-F, DP-1, DP-1m. The data presented below are complete for D5-F and DP-1.
For D5F and DP1, two replicates were performed with rats. In the first replicate, the animals (one animal/dose) were exposed to a range of doses; 10.0, 1.0, 0.1, and 0.01 μM. The dose range used was smaller than that originally planned due to the availability of the compound to prepare an adequate amount of dosing solution.

[2] = ALD evaluation, iv administration in rat; format: in vivo; details: for [μM] T = 0, lethal concentration: first value of the cell, assigned to rat iv because it fits μmol Riv; for μg/dose (Riv), lethal dose / μmol Riv, lethal dose: iv administration in rat; for Lethality, verification dosing: 10.0 μM, one naive animal
Method: as §1, §2
(§3) For all three compounds, two replicates were performed with both mice and rats. In the first replicate, the animals (one animal/dose) were exposed to a range of doses, 10.0, 5.0, 2.5, 1.0, 0.5, 0.25, 0.1, 0.05, 0.025, and 0.01 μM. For the second replicate, the lethal dose was diluted to produce an intermediate dose between the lethal dose and the subsequent nonlethal dose.
Replicate2: For all compounds, the high dose was diluted to 7.5 μM for the second replicate. The doses administered were 7.5, 5.0, 2.5, 1.0, 0.5. 0.25, and 0.1 μM. D5F, DP1, and DP1m were lethal at 7.5 μM and were not lethal at the lower doses.
The lethality of the high dose was verified by dosing one animal with the lethal dose determined by Replicate 1. The rats used for the evaluation were remaining from the original shipment and were naive for treatment. The doses were the following: D5F, 10.0 μM; DP1, 10.0 μM; and DP1m, 10.0 μM.

[3] = ALD evaluation, iv administration in mouse; format: in vivo; details: for μg/dose (Miv), lethal dose / μmol Miv, lethal dose: iv administration in mouse; for [μM] T = 0, lethal concentration: second value of the cell (single value for D5-F), assigned to mouse iv because it fits μmol Miv; for Lethality, verification dosing / Lethality: mice; for Lethality, verification dosing: one animal previously exposed to 0.01 μM
Method: as §1, §2, §3
Replicate 2: For D5F and DP1, the high dose was diluted to 7.5 μM for the second replicate. The doses administered were 7.5, 5.0, 1.0, 0.5, 0.25, 0.1, 0.05, 0.025, and 0.01 μM. D5F was lethal at 7.5 μM, whereas DP1 was not. DP1m was again not lethal to the mice over the treatment levels delivered.
The effects of the highest dose (lethal--D5F and DP1, nonlethal--DP1 m) were verified by dosing one animal with the effective or highest no effect concentration used in Replicate 1. In the case of D5F, the dose of 7.5 μM was used to verify lethality observed in Replicate 2. The mice treated with these compounds were previously exposed to the lowest dose 0.01 μM. The doses were the following: D5F, 7.5 μM; DP1, 10.0 μM; and DP1m, 10.0 μM.

[4] = Solubility at the concentration required for im administration; format: physicochemical
[5] = rats, iv, Replicate 1, lower concentrations
[6] = rats, iv, Replicate 2, lower doses (5.0 to 0.1 μM)
[7] = iv, Replicate 1, lower concentrations (5.0 to 0.01 μM)

SMILES	μg/dose (Rim), lethal dose [1]	μmol Rim, lethal dose [1]	[μM] T = 0, lethal concentration [2]	μg/dose (Riv), lethal dose [2]	μmol Riv, lethal dose [2]	μg/dose (Miv), lethal dose [3]	μmol Miv, lethal dose [3]	[μM] T = 0, lethal concentration [3]	Lethality, verification dosing ([2]; rats, iv)	Lethality ([2]; rats, iv, Replicate 1, 10.0 μM)	Lethality [2, 5]	Lethality ([2]; rats, iv, Replicate 2, 7.5 μM)	Lethality [2, 6]	Lethality ([3]; iv, Replicate 1, 10.0 μM)	Lethality [3, 7]	Lethality, verification dosing ([3]; iv, 10.0 μM)	other results
CC[C@H](C)[C@H](NC(=O)[C@H](CCCCN)NC(=O)[C@H](CCCNC(=N)N)NC(=O)[C@H](C)NC(=O)[C@H](CC(C)C)NC(=O)[C@H](CCCCN)NC(=O)[C@H](CCCCN)NC(=O)[C@H](CC(C)C)NC(=O)[C@H](CCCNC(=N)N)NC(=O)[C@H](CCCNC(=N)N)NC(=O)CNC(=O)[C@@H](NC(=O)[C@H](CCCNC(=N)N)NC(=O)[C@H](CCCCN)NC(=O)[C@@H](NC(=O)[C@H](C)NC(=O)[C@H](CCCNC(=N)N)NC(=O)[C@H](CCCCN)NC(=O)[C@H](CCCNC(=N)N)NC(=O)[C@@H](N)CCCCN)C(C)C)C(C)C)C(=O)N[C@@H](C)C(=O)N[C@@H](CCCNC(=N)N)C(=O)N[C@@H](CC(C)C)C(=O)NCC(=O)N[C@H](C(=O)N[C@@H](C)C(=O)N[C@@H](Cc1ccccc1)C(=O)O)C(C)C [Peptide 13] (H-KRKRAVKRVGRRLKKLARKIARLGVAF-OH)	not lethal	not lethal	2.0 µM	1,269.78 μg/dose	0.4 µmol	158.72 μg/dose	0.05 µmol	2.5 µM									
CC[C@H](C)[C@H](NC(=O)[C@H](C)NC(=O)[C@H](CCCNC(=N)N)NC(=O)[C@H](CC(C)C)NC(=O)CNC(=O)[C@@H](NC(=O)[C@H](C)NC(=O)[C@@H](N)Cc1ccccc1)C(C)C)C(=O)N[C@@H](CCCCN)C(=O)N[C@@H](CCCNC(=N)N)C(=O)N[C@@H](C)C(=O)N[C@@H](CC(C)C)C(=O)N[C@@H](CCCCN)C(=O)N[C@@H](CCCCN)C(=O)N[C@@H](CC(C)C)C(=O)N[C@@H](CCCNC(=N)N)C(=O)N[C@@H](CCCNC(=N)N)C(=O)NCC(=O)N[C@H](C(=O)N[C@@H](CCCNC(=N)N)C(=O)N[C@@H](CCCCN)C(=O)N[C@H](C(=O)N[C@@H](C)C(=O)N[C@@H](CCCCN)C(=O)N[C@@H](CC(=O)O)C(=O)N[C@@H](CC(C)C)C(=O)O)C(C)C)C(C)C [Peptide 16] (H-FAVGLRAIKRALKKLRRGVRKVAKDL-OH)	not lethal	not lethal	7.5 µM	5,416.19 μg/dose	1.5 µmol	541.62 μg/dose	0.15 µmol	7.5 µM	dead within four hours	lethal	No lethality	lethal	not lethal	lethal	No lethality		Clinical Observations ([2]; rats, iv, 2.5 and 5.0 μM, ends of tails later sloughed off): discoloration of the tail; Lethality, verification dosing ([3]; iv, 7.5 μM): dead within four hours; Lethality ([3]; iv, Replicate 2, 7.5 μM): lethal
CC(C)C[C@H](NC(=O)[C@H](C)NC(=O)[C@H](CCCCN)NC(=O)[C@H](CCCCN)NC(=O)[C@H](CC(C)C)NC(=O)[C@H](C)NC(=O)[C@H](CCCCN)NC(=O)[C@H](CCCCN)NC(=O)[C@H](CC(C)C)NC(=O)[C@H](CCCCN)NC(=O)[C@H](CCCCN)NC(=O)[C@H](CC(C)C)NC(=O)[C@H](C)NC(=O)[C@H](CCCCN)NC(=O)[C@H](CCCCN)NC(=O)[C@H](CC(C)C)NC(=O)[C@H](C)NC(=O)[C@H](CCCCN)NC(=O)[C@H](CC(C)C)NC(=O)[C@H](C)NC(=O)[C@H](CC(C)C)NC(=O)[C@H](C)NC(=O)[C@@H](N)Cc1ccccc1)C(=O)O [Peptide 19] (H-FALALKALKKALKKLKKALKKAL-OH)	not lethal	not lethal	7.5 µM	4,689.41 μg/dose	1.5 µmol	625.36 μg/dose	0.2 µmol	10.0 µM	dead within four hours	lethal	No lethality	lethal	not lethal	lethal	No lethality	dead within four hours	
CC(C)C[C@H](NC(=O)[C@H](C)NC(=O)[C@H](CCCCN(C)C)NC(=O)[C@H](CCCCN(C)C)NC(=O)[C@H](CC(C)C)NC(=O)[C@H](C)NC(=O)[C@H](CCCCN(C)C)NC(=O)[C@H](CCCCN(C)C)NC(=O)[C@H](CC(C)C)NC(=O)[C@H](CCCCN(C)C)NC(=O)[C@H](CCCCN(C)C)NC(=O)[C@H](CC(C)C)NC(=O)[C@H](C)NC(=O)[C@H](CCCCN(C)C)NC(=O)[C@H](CCCCN(C)C)NC(=O)[C@H](CC(C)C)NC(=O)[C@H](C)NC(=O)[C@H](CCCCN(C)C)NC(=O)[C@H](CC(C)C)NC(=O)[C@H](C)NC(=O)[C@H](CC(C)C)NC(=O)[C@H](C)NC(=O)[C@H](Cc1ccccc1)N(C)C)C(=O)O [Peptide 20] (NMe2Phe-ALAL[Lys(Me2)]AL[Lys(Me2)][Lys(Me2)]AL[Lys(Me2)][Lys(Me2)]L[Lys(Me2)][Lys(Me2)]AL[Lys(Me2)][Lys(Me2)]AL-OH)	not lethal	not lethal	7.5 µM	5,139.41 μg/dose	1.5 µmol	685.36 μg/dose	0.2 µmol	10.0 µM	dead within four hours	lethal	No lethality	lethal	not lethal	not lethal	No lethality	dead within four hours	solubility [4]: poor solubility; Lethality ([3]; iv, Replicate 2, over the treatment levels delivered): not lethal; Clinical Observations ([3]; mouse, iv, 10 μM, end of tail later sloughed off): discoloration of the tail
